Experimental findings from patent US6355225B1, “Fullerene contrast agent for magnetic resonance imaging and spectroscopy” (Wm. Marsh Rice University TDA Research, Inc., priority 1999, dated 2002) are described below.

Common to all, as to type: physicochemical
The nature of series [1]: Water solubility of the C60(OH)32 fullerol.
A short description of series [2]: Water proton relaxivity (T1), Bruker PC/20 relaxometer. To be noted: 20 MHz (0.47 T), 40° C., four concentrations. The procedure: The paramagnetic fullerol's potential as an MRI relaxation agent was evaluated by direct measurement of its water proton relaxivity using a Bruker model PC/20 relaxometer (Bruker Ltd., Canada) operating at a fixed field of 20 MHz (0.47 T) and 40° C. Four separate measurements at four different concentrations were performed to determine the T1 relaxation. A plot of the results is shown in FIG. 3 and indicates a relaxivity of about 0.5 mM^−1sec^−. The relaxivity of the compound is thus considerably lower than the best currently available Gd-chelates (ca. […]) but is still large enough to be useful in the body.

The nature of series [3]: Paramagnetism in solution by the NMR method (D2O solvent, t-butyl alcohol reference). To be noted: 300 K. The text has this: (§1) The magnetic properties of the fullerol were characterized by several methods. […] A solid sample was further studied using a Quantum Design MPMS-5S […] magnetometer operating at 5 Tesla. […] After correction for the diamagnetic contribution of the sample (using data from C60 for the fullerene carbons and Pascal's constants for the OH groups), the final value of the effective magnetic moment, μb, of the C60(OH)32 is approximately 1.5 Bohr magnetons at 300 K. Given the large diamagnetic contribution, uncertainty in the diamagnetic correction factors, and assuming no spin orbit or other types of spin coupling, this is within the experimental error for predicting one free electron per fullerol molecule in the solid state. A measurement of the paramagnetism of the solution form of the acid fullerol was then conducted using the NMR method employing D2O as the solvent and t-butyl alcohol as the reference compound. Measurement of the chemical shift of the reference peaks indicated a paramagnetism of 2.1 Bohr magnetons at 300 K when in solution.

Series [4] can be described thus: Effective magnetic moment of solid sample, Quantum Design MPMS-5S magnetometer at 5 Tesla. To be noted: 300 K, after diamagnetic correction.
Source text: as §1

Series [5] in a line: Air stability of the paramagnetic fullerol. The text has this:
According to a second embodiment, a water-soluble, paramagnetic fullerene derivative comprising about 32 hydroxyl groups attached to C60 fullerene was synthesized and shown to be air-stable, paramagnetic, and an efficient water proton relaxation agent.
These experimental results make C60(OH)32 (or C60(OH)32^− or C60(OH)32^2−) the first reported water-soluble, air-stable fullerene paramagnetic radical.

Regarding C60(OH)32, the solubility in water result in series [1] is given as “at least 4 mM”. The “water proton relaxivity (T1)” value in series [2] is listed as “about 0.5 mM^−1sec^−”. This substance also returned a paramagnetism in solution in series [3] of 2.1 Bohr magnetons. Moreover, in series [4], the effective magnetic moment entry is listed as “approximately 1.5 Bohr magnetons”. Besides, the stability in air entry in series [5] is “air-stable”.
